Patent US20050031597A1, “Cells and improved method for preserving cells” (priority 2003, published 2005)
Like-named read-outs stand apart in the source and are kept apart here.

How the values were obtained:
platelets = test: Stability of platelets during incubation (microscopy, flow cytometric analysis); assay type: cell-based, human
Description: The stability of the platelets during a 4 hours incubation period was studied using microscopy and flow cytometric analysis. […] No signs of microvesicle formation could be observed after 4 hours incubation, as can be judged by the stable relative proportion of microvesicle gated cells (less than 3%). The formation of microvesicles is usually considered as the first sign of platelet activation (Owners et al., Trans. Med. Rev., 8, 27-44, 1994). Characteristic antigens of platelet activation include: glycoprotein 53 (gp53, a lysosomal membrane marker), PECAM-1 (platelet endothelial cell adhesion molecule-1, an alpha granule constituent), and P-selection (an alpha granule membrane protein).

human erythrocytic cells = test: Trehalose uptake by erythrocytic cells (anthrone assay, HPLC); assay type: cell-based
Description: FIG. 5 graphically illustrates the loading efficiency of trehalose into human erythrocytic cells as a function of external trehalose concentration at respective temperatures of 4° C. and 37° C. Erythrocytic cells were exposed to trehalose for 18 hours at either 4° C. or 37° C. The trehalose concentration in the incubation medium varied between 230 mM and 1000 mM. Each incubation buffer contained trehalose (between 230 mM and 1000 mM) and 100 mOsm PBS pH 7.2. Increase in the trehalose concentration in the loading medium results in an increase in the sugar uptake, reaching about 100 mM cytoplasmic trehalose in erythrocytes incubated in 1000 mM trehalose and 100 mOsm PBS. At 4° C., the uptake was very limited, being about 25 mM. The trehalose intake was measured using anthrone assay and confirmed by high performance liquid chromatography. It is clear that there was substantial loading at 37° C., but not at 4° C. Furthermore, trehalose loading was not significant unless the extracellular cellular trehalose concentration gives a hyperosmotic pressure.
FIG. 7 graphically illustrates trehalose uptake (i.e., intracellular trehalose mM) and hemolysis (i.e., % hemolysis) as a function of incubation temperature (° C.). The incubation temperature was varied between 4° C. and 37° C. […] Between 4° C. and 30° C., the cytoplasmic trehalose was very low (between 1 and 4 mM).
100 mOsm ADSOL contains 24 mM glucose, 0.43 mM adenine, 33.3 mM NaCl and 8.9 mM mannitol. Four different temperatures of incubation were used: 4° C., 23° C., 37° C. and 41° C. […] At 23° C., the uptake was higher than at 4° C. and increased with increase of the time of incubation reaching 22 mM intracellular trehalose. At 37° C., the highest uptake of trehalose by the erythrocytic cells was observed within 16 hours (60 mM). At 41° C., the uptake was slightly higher than that observed at 37° C. within 6 hours.

erythrocytic cells [1] = test: Percent hemolysis of erythrocytic cells during loading or incubation; assay type: cell-based; conditions: for percent hemolysis: 800 mM trehalose, 100 mOsm ADSOL, 6.6 mM K-phosphate
Description: FIG. 9 graphically illustrates % hemolysis of loaded cells as a function of time (hours) of incubation in 300 mOsm PBS pH 7.2. The erythrocytic cells were loaded in 700 mM trehalose in 100 mOsm PBS pH 7.2 at 35° C. for 16 hours. After the loading step, the cells were incubated in 300 mOsm PBS pH 7.2 between 1 and 25 hours. This buffer was used for washing the loaded cells and it was important to determine the stability of the loaded cells when they were suspended in this buffer. Cell stability was assessed by measuring the percent hemolysis over the course of 25 hours. […] Between 7 and 25 hours, there was only a small change in the percent hemolysis (from about 25% to about 30%).
FIG. 10 graphically illustrates time course (incubation time, hours) of hemolysis(%) of trehalose-loaded cells as a function of the composition of the incubation buffer. Erythrocytic cells were loaded in 700 mM trehalose in 100 mOsm PBS pH 7.2 for 16 hours at 35° C. They were washed with 300 mOsm PBS pH 7.2 and were subsequently transferred to storage media with increasing trehalose concentrations (between 100 mM and 300 mM trehalose) added to 100 mOsm PBS pH 7.2. The percent hemolysis was measured over the course of 3 hours. […]
At 23° C., the percent hemolysis increases to 7% during 6 hours of incubation. At 37° C., between 10 and 12% hemolysis is observed during incubation of erythrocytic cells between 6 and 9 hours. […] Such intracellular concentration of trehalose provides high survival of erythrocytic cells after freeze-drying and rehydration, therefore these conditions (incubation in trehalose medium between 6 and 9 hours at 37° C.) can be used for loading erythrocytic cells.

erythrocytic cells [2] = test: Osmotic fragility index of trehalose-loaded erythrocytic cells; assay type: cell-based
Description: FIG. 6 graphically illustrates the fragility index of erythrocytic cells incubated overnight at respective temperatures of 4° C. and 37° C. in the presence of and as a function of increasing intracellular trehalose concentrations. The osmotic fragility index was generated by the extent of hemolysis as a function of the NaCl concentration. The erythrocytic cells that had been loaded in trehalose solutions (between 250 mM and 1000 mM) in 100 mOsm PBS were suspended in increasing concentrations of NaCl (between 50 and 600 mOsm NaCl). The percent hemolysis measured after resuspending the loaded cells in NaCl represents the fragility index.

erythrocytic cells [3] = test: Hemolysis / survival of freeze-dried and rehydrated erythrocytic cells
Description: Cells were loaded in either 800 mM trehalose, 100 mOsm ADSOL, 6.6 mM Na-phosphate (FIG. 21, data set labeled as 800 mM treh) or in 800 mM trehalose, 100 mOsm ADSOL, 6.6 mM Na-phosphate and 1.2 mg/ml α-crystallin (FIG. 21, data set labeled as +α-crystallin 1.2 mg/ml). Cells were subsequently mixed with freeze-drying buffer with final concentration of 250 mM trehalose, 20 mOsm ADSOL, 15% HES and 2.5% HSA and were freeze-dried. After freeze-drying they were directly rehydrated (no pre-hydration) in 141 mM trehalose, 75 mOsm PBS, 11.25% HES and 1.875% HSA. […] In the third data set of FIG. 21, along with 1.2 mg/ml α-crystallin, there was 0.5 mg/ml α-crystallin added to the rehydration buffer.
Rehydration experiments were performed combining α-crystallin and Zn^2+ ions, and applying 5 min pre-hydration.
The cells were loaded in media with different trehalose concentration (400, 500, 600, 700 and 800 mM trehalose) in 100 mOsm PBS pH 7.2. The cells were freeze-dried in 300 mM trehalose in 100 mOsm PBS, 15% HES and 2.54% HSA and rehydrated in a buffer containing 188 mM trehalose, 15% HES and 2.5% HSA.
Loading buffer comprised 800 mM trehalose in a salt solution of 100 mOsm PBS. The incubation time was 16 hours at a temperature of about 35° C. After the cells were loaded, they were subsequently washed in a washing buffer comprising 300 mM in a salt solution of 100 mOsm PBS. Within 3 hours after washing the loaded cells, the wash loaded cells were freeze-dried in freeze-drying buffer comprising about 300 mM trehalose, about 100 mOsm PBS, about 2.5% by wt. HSA, and about 15% by wt. HES. After the freeze-drying procedure the cells had about 75 mM trehalose, about 25 mOsm PBS, about 0.6% by wt. HSA and about 4.0% by wt. HES left in the cells. The freeze-dried cells were then reconstituted at about 37° C. for about 10 minutes in a rehydration buffer comprising about 188 mM trehalose, about 100 mOsm PBS, about 2.5% by wt.

[4] = about 37° C., about nine(9) hours

OC[C@H]1O[C@H](O[C@H]2O[C@H](CO)[C@@H](O)[C@H](O)[C@H]2O)[C@H](O)[C@@H](O)[C@@H]1O [trehalose]
platelet morphology (platelets; 4 hours incubation at 37° C., 25 mM external trehalose): No morphological changes | platelet morphology (platelets; 4 hours incubation in 75 mM trehalose): swollen | relative proportion of microvesicle gated cells (platelets; after 4 hours incubation): less than 3% | intracellular trehalose (human erythrocytic cells; 800 mM trehalose, 100 mOsm ADSOL, 6.6 mM K-phosphate, 4° C., 16 hours): 10 mM | intracellular trehalose (human erythrocytic cells; 800 mM trehalose, 100 mOsm ADSOL, 6.6 mM K-phosphate, 23° C.): 22 mM | intracellular trehalose (human erythrocytic cells; 800 mM trehalose, 100 mOsm ADSOL, 6.6 mM K-phosphate, 37° C., within 16 hours): 60 mM | cytoplasmic trehalose (human erythrocytic cells; 800 mM trehalose, 100 mOsm ADSOL, 6.6 mM K-phosphate, nine(9) hours at 4° C.): about 10 mM | cytoplasmic trehalose (human erythrocytic cells; 800 mM trehalose, 100 mOsm ADSOL, 6.6 mM K-phosphate, nine(9) hours at 23° C.): about 22 mM | cytoplasmic trehalose (human erythrocytic cells; 800 mM trehalose, 100 mOsm ADSOL, 6.6 mM K-phosphate, nine(9) hours at 37° C.): about 60 mM | cytoplasmic trehalose (human erythrocytic cells; 6 hours in 800 mM trehalose in 100 mOsm PBS pH 7.2, 37° C.): up to 35 mM | cytoplasmic trehalose uptake (human erythrocytic cells; 18 hours, 4° C.): about 25 mM | cytoplasmic trehalose (human erythrocytic cells; 18 hours, 37° C., 1000 mM trehalose and 100 mOsm PBS): about 100 mM | trehalose (mM) to incubation (hours) loading gradient (human erythrocytic cells; about 23° C.): about 0.75 | trehalose (mM) to incubation (hours) loading gradient (human erythrocytic cells; [4]): about 1.25 | intracellular trehalose (human erythrocytic cells; loaded in 400 mM trehalose in 100 mOsm PBS at 35° C. for 16 hours): 3 mM | intracellular trehalose (human erythrocytic cells; loaded in 800 mM trehalose in 100 mOsm PBS at 35° C. for 16 hours): 60 mM | trehalose left in the cells after freeze-drying (human erythrocytic cells; loaded in 800 mM trehalose/100 mOsm PBS 16 hours about 35° C., washed, freeze-dried): about 75 mM | percent hemolysis (erythrocytic cells [1]; 23° C., 6 hours): 7% | percent hemolysis (erythrocytic cells [1]; 23° C., nine(9) hours): about 7% | percent hemolysis (erythrocytic cells [1]; 37° C., nine(9) hours): about 12% | hemolysis (%) to incubation (hours) hemolysis gradient (erythrocytic cells [1]; about 23° C.): about 0.38 | hemolysis (%) to incubation (hours) hemolysis gradient (erythrocytic cells [1]; [4]): about 0.25 | percent hemolysis of trehalose-loaded cells (erythrocytic cells [1]; loaded in 700 mM trehalose/100 mOsm PBS 35° C. 16 hours, start of incubation in 300 mOsm PBS pH 7.2): about 7% | percent hemolysis of trehalose-loaded cells (erythrocytic cells [1]; loaded in 700 mM trehalose/100 mOsm PBS, 7 hours in 300 mOsm PBS pH 7.2): about 25% | percent hemolysis of trehalose-loaded cells (erythrocytic cells [1]; loaded in 700 mM trehalose/100 mOsm PBS, 25 hours in 300 mOsm PBS pH 7.2): about 30% | percent hemolysis of trehalose-loaded cells (erythrocytic cells [1]; storage medium 300 mM trehalose in 100 mOsm PBS, over the course of 3 hours): about 4% | osmotic fragility (erythrocytic cells [2]; 1000 mM trehalose in 100 mOsm PBS at 37° C.): unstable | osmotic fragility (erythrocytic cells [2]; trehalose media between 250 mM and 800 mM in 100 mOsm PBS, 37° C. and 4° C.): stable osmotically | biconcave shape and cell integrity of rehydrated cells (erythrocytic cells [3]; 60 mM cytoplasmic trehalose, freeze-dried and rehydrated (FIG. 14)): well preserved | cells lysed after rehydration (erythrocytic cells [3]; protocol of Example 12: loaded 800 mM trehalose/100 mOsm PBS, freeze-dried and rehydrated with trehalose, PBS, HSA, HES): less than 5% | hemolysis at 100000 µM (erythrocytic cells [3]; read-out: % hemolysis of rehydrated cells): < 10% | hemolysis at 800000 µM (erythrocytic cells [3]; read-out: hemolysis after freeze-drying and direct rehydration): 63% | hemolysis at 800000 µM (erythrocytic cells [3]; read-out: percent hemolysis after freeze-drying and direct rehydration): 68%
